# Marks after values point to notes of the source that are not given here.
# Columns and labels:
# [1] = system: Puccinia recondita f. sp. tritici; test: Test H: wheat leaf rust, preventive spray on wheat seedlings, visual disease rating; settings: for Test H rating (% disease control), marked * / Test H rating (% disease control): wheat leaf rust, preventive spray; for Test H rating (% disease control), marked * / pest or weed control at 40 µg/mL: rating marked with asterisk (*), other test suspension concentration than unmarked ratings; for Test H rating (% disease control): rating without asterisk; for pest or weed control at 40 µg/mL: read-out: Test H rating (% disease control), marked *, wheat leaf rust, preventive spray
# [2] = system: Blumeria graminis f. sp. tritici; test: Test I: wheat powdery mildew, preventive spray on wheat seedlings, visual disease rating; settings: for Test I rating (% disease control), marked * / Test I rating (% disease control): wheat powdery mildew, preventive spray; for Test I rating (% disease control), marked * / pest or weed control at 40 µg/mL: rating marked with asterisk (*), other test suspension concentration than unmarked ratings; for Test I rating (% disease control): rating without asterisk; for pest or weed control at 40 µg/mL: read-out: Test I rating (% disease control), marked *, wheat powdery mildew, preventive spray
# Septoria tritici = test: Test F: wheat leaf blotch, preventive spray on wheat seedlings, visual disease rating; assay type: in vivo; set-up: pest or weed control: dose or concentration left out as unconfirmed; settings: for Test F rating (% disease control), marked * / Test F rating (% disease control) / pest or weed control: preventive spray; for Test F rating (% disease control), marked * / pest or weed control: rating marked with asterisk (*), other test suspension concentration than unmarked ratings; for Test F rating (% disease control): rating without asterisk
# Excerpt: A hyphen (-) indicates no test results.
# Botrytis cinerea = test: Test A: tomato Botrytis, preventive spray on tomato seedlings, visual disease rating; settings: for Test A rating (% disease control), marked * / Test A rating (% disease control): tomato Botrytis, preventive spray; for Test A rating (% disease control), marked * / pest or weed control at 40 µg/mL: rating marked with asterisk (*), other test suspension concentration than unmarked ratings; for Test A rating (% disease control): 0 = no control relative to controls, rating without asterisk; for pest or weed control at 40 µg/mL: read-out: Test A rating (% disease control), marked *, tomato Botrytis, preventive spray
# Experimental: General protocol for preparing test suspensions for Tests A-I: the test compounds were first dissolved in acetone in an amount equal to 3% of the final volume and then suspended at the desired concentration (in ppm) in acetone and purified water (50/50 mix by volume) containing 250 ppm of the surfactant Trem® 014 (polyhydric alcohol esters). The resulting test suspensions were then used in Tests A-I. Each test was conducted in triplicate, and the results were averaged. Spraying a 200 ppm test suspension to the point of run-off on the test plants was the equivalent of a rate of about 800 g/ha. Unless otherwise indicated, the rating values indicate a 200 ppm test suspension was used. (An asterisk “*” next to the rating value indicates a 40 ppm test suspension was used.)
# The test suspension was sprayed to the point of run-off on tomato seedlings. The following day the seedlings were inoculated with a spore suspension of Botrytis cinerea (the causal agent of tomato Botrytis) and incubated in saturated atmosphere at 20° C. for 48 h, and then moved to a growth chamber at 24° C. for 3 additional days, after which time visual disease ratings were made.
# Septoria nodorum = test: Test E: Septoria glume blotch, preventive spray on wheat seedlings, visual disease rating; settings: Septoria glume blotch on wheat, preventive spray; rating marked with asterisk (*), other test suspension concentration than unmarked ratings
# [3] = Blumeria graminis, in Triticum aestivum
# [4] = Botrytis cinerea, in Solanum lycopersicum
smiles,measurement,setting,value
Cc1nn(C)c(Nc2c(Cl)cccc2Cl)c1-c1ccc(F)cc1Cl [compound 255],"Test H rating (% disease control), marked *",[1],99* %
same,"Test I rating (% disease control), marked *",[2],81* %
same,"Test F rating (% disease control), marked *",Septoria tritici,100* %
same,"Test A rating (% disease control), marked *",Botrytis cinerea,100* %
Cc1nn(C)c(Nc2c(F)cc(F)cc2Cl)c1-c1ccc(Br)cc1F [compound 234],Test H rating (% disease control),[1]; 100 = 100% disease control,91%
same,Test I rating (% disease control),[2]; 100 = 100% disease control,79%
same,Test F rating (% disease control),Septoria tritici; 100 = 100% disease control,100%
same,Test A rating (% disease control),Botrytis cinerea; 100 = 100% disease control,97%
Cc1nn(C)c(Nc2c(F)cc(Cl)cc2F)c1-c1ccc(Br)cc1F [compound 236],Test H rating (% disease control),[1]; 100 = 100% disease control,28%
same,Test I rating (% disease control),[2]; 100 = 100% disease control,0%
same,Test F rating (% disease control),Septoria tritici; 100 = 100% disease control,100%
same,Test A rating (% disease control),Botrytis cinerea; 100 = 100% disease control,47%
Cc1nn(C)c(Nc2c(F)cc(F)cc2C#N)c1-c1ccc(C#N)cc1F [compound 250],Test H rating (% disease control),[1]; 100 = 100% disease control,100%
same,Test I rating (% disease control),[2]; 100 = 100% disease control,89%
same,Test F rating (% disease control),Septoria tritici; 100 = 100% disease control,100%
same,Test A rating (% disease control),Botrytis cinerea; 100 = 100% disease control,0%
Cc1nn(C)c(Nc2ccc(F)cc2Cl)c1-c1ccc(Br)cc1F [compound 232],Test H rating (% disease control),[1]; 100 = 100% disease control,90%
same,Test I rating (% disease control),[2]; 100 = 100% disease control,99%
same,Test F rating (% disease control),Septoria tritici; 100 = 100% disease control,100%
same,Test A rating (% disease control),Botrytis cinerea; 100 = 100% disease control,79%
"Cc1cccc(C)c1Nc1c(-c2ccc(F)cc2F)c(C)nn1C [Compound 270, 4-(2,4-difluorophenyl)-N-(2,6-dimethylphenyl)-1,3-dimethyl-1H-pyrazol-5-amine]",pest or weed control at 40 µg/mL,[1],41%
same,pest or weed control at 40 µg/mL,[2]; [3],91%
same,pest or weed control,Septoria tritici; Zymoseptoria tritici,100%
same,pest or weed control at 40 µg/mL,Botrytis cinerea; [4],98%
"COc1ccc(-c2c(C)nn(C)c2Nc2c(C)cccc2Cl)c(F)c1 [Compound 257, N-(2-chloro-6-methylphenyl)-4-(2-fluoro-4-methoxyphenyl)-1,3-dimethyl-1H-pyrazol-5-amine]","Test E rating (% disease control), marked *",Septoria nodorum,31* %
same,pest or weed control at 40 µg/mL,[1],63%
same,pest or weed control at 40 µg/mL,[2]; [3],27%
same,pest or weed control,Septoria tritici; Zymoseptoria tritici,100%
same,pest or weed control at 40 µg/mL,Botrytis cinerea; [4],100%
Cc1nn(C)c(Nc2c(F)cc(Cl)cc2Cl)c1-c1ccc(Br)cc1F [compound 237],Test H rating (% disease control),[1]; 100 = 100% disease control,92%
same,Test I rating (% disease control),[2]; 100 = 100% disease control,95%
same,Test F rating (% disease control),Septoria tritici; 100 = 100% disease control,100%
same,Test A rating (% disease control),Botrytis cinerea; 100 = 100% disease control,99%
"Cc1cccc(Cl)c1Nc1c(-c2ccc(F)cc2Br)c(C)nn1C [Compound 276, 4-(2-bromo-4-fluorophenyl)-N-(2-chloro-6-methylphenyl)-1,3-dimethyl-1H-pyrazol-5-amine]",pest or weed control at 40 µg/mL,[1],99%
same,pest or weed control at 40 µg/mL,[2]; [3],92%
same,pest or weed control,Septoria tritici; Zymoseptoria tritici,100%
same,pest or weed control at 40 µg/mL,Botrytis cinerea; [4],100%
Cc1nn(C)c(Nc2c(Cl)cccc2Cl)c1-c1ccc(F)cc1Br [compound 256],"Test H rating (% disease control), marked *",[1],95* %
same,"Test I rating (% disease control), marked *",[2],64* %
same,"Test F rating (% disease control), marked *",Septoria tritici,100* %
same,"Test A rating (% disease control), marked *",Botrytis cinerea,99* %
"Cc1nn(C)c(Nc2c(F)cc(Cl)cc2F)c1-c1ccc(C#N)cc1F [Compound 150, 4-[5-[(4-chloro-2,6-difluorophenyl)amino]-1,3-dimethyl-1H-pyrazol-4-yl]-3-fluorobenzonitrile]",pest or weed control at 200 µg/mL,"[1]; read-out: Test H rating (disease control), wheat leaf rust, sprayed the day before inoculation, 100 = 100% disease control, 0 = no disease control",100%
same,pest or weed control at 200 µg/mL,"[2]; Blumeria graminis, in Triticum aestivum, read-out: Test I rating (disease control), wheat powdery mildew, 100 = 100% disease control, 0 = no disease control relative to the controls",100%
same,pest or weed control at 200 µg/mL,"Septoria tritici; Zymoseptoria tritici, 100 = 100% disease control, 0 = no disease control relative to the controls",100%
same,pest or weed control at 200 µg/mL,"Botrytis cinerea; Botrytis cinerea, in Solanum lycopersicum, read-out: Test A rating (disease control), tomato Botrytis, 100 = 100% disease control, 0 = no disease control relative to the controls",100%
Cc1nn(C)c(Nc2ccccc2I)c1-c1ccc(F)cc1Br [compound 243],Test H rating (% disease control),[1]; 100 = 100% disease control,99%
same,Test I rating (% disease control),[2]; 100 = 100% disease control,100%
same,Test F rating (% disease control),Septoria tritici; 100 = 100% disease control,100%
same,Test A rating (% disease control),Botrytis cinerea; 100 = 100% disease control,100%
Cc1nn(C)c(Nc2c(Cl)cccc2Cl)c1-c1ccc(F)cc1F [compound 251],Test H rating (% disease control),[1]; 100 = 100% disease control,100%
same,Test I rating (% disease control),[2]; 100 = 100% disease control,100%
same,Test F rating (% disease control),Septoria tritici; 100 = 100% disease control,100%
same,Test A rating (% disease control),Botrytis cinerea; 100 = 100% disease control,100%
Cc1nn(C)c(Nc2ccc(F)cc2Cl)c1-c1ccc(C#N)cc1F [Compound 248],Test H rating (% disease control),[1]; 100 = 100% disease control,99%
same,Test I rating (% disease control),[2]; 100 = 100% disease control,99%
same,Test F rating (% disease control),Septoria tritici; 100 = 100% disease control,100%
same,Test A rating (% disease control),Botrytis cinerea; 100 = 100% disease control,99%
"COc1ccc(-c2c(C)nn(C)c2Nc2c(F)cccc2Br)c(F)c1 [Compound 261, N-(2-bromo-6-fluorophenyl)-4-(2-fluoro-4-methoxyphenyl)-1,3-dimethyl-1H-pyrazol-5-amine]","Test E rating (% disease control), marked *",Septoria nodorum,0* %
same,pest or weed control at 40 µg/mL,[1],97%
same,pest or weed control at 40 µg/mL,[2]; [3],95%
same,pest or weed control,Septoria tritici; Zymoseptoria tritici,100%
Cc1nn(C)c(Nc2c(F)cc(F)cc2Br)c1-c1ccc(Br)cc1F [compound 235],Test H rating (% disease control),[1]; 100 = 100% disease control,96%
same,Test I rating (% disease control),[2]; 100 = 100% disease control,90%
same,Test F rating (% disease control),Septoria tritici; 100 = 100% disease control,100%
same,Test A rating (% disease control),Botrytis cinerea; 100 = 100% disease control,99%
Cc1nn(C)c(Nc2ccccc2Br)c1-c1ccc(F)cc1Br [compound 242],"Test H rating (% disease control), marked *",[1],96* %
same,"Test I rating (% disease control), marked *",[2],99* %
same,"Test F rating (% disease control), marked *",Septoria tritici,100* %
same,"Test A rating (% disease control), marked *",Botrytis cinerea,99* %
Cc1nn(C)c(Nc2c(Cl)cc(F)cc2Cl)c1-c1ccc(C#N)cc1F [compound 249],Test H rating (% disease control),[1]; 100 = 100% disease control,98%
same,Test I rating (% disease control),[2]; 100 = 100% disease control,92%
same,Test F rating (% disease control),Septoria tritici; 100 = 100% disease control,100%
same,Test A rating (% disease control),Botrytis cinerea; 100 = 100% disease control,100%
Cc1nn(C)c(Nc2ccccc2Cl)c1-c1ccc(F)cc1Br [compound 272],Test H rating (% disease control),[1]; 100 = 100% disease control,99%
same,Test I rating (% disease control),[2]; 100 = 100% disease control,100%
same,Test F rating (% disease control),Septoria tritici; 100 = 100% disease control,100%
same,Test A rating (% disease control),Botrytis cinerea; 100 = 100% disease control,100%
Cc1nn(C)c(Nc2c(Cl)cc(F)cc2Cl)c1-c1ccc(Br)cc1F [compound 233],Test H rating (% disease control),[1]; 100 = 100% disease control,91%
same,Test I rating (% disease control),[2]; 100 = 100% disease control,89%
same,Test F rating (% disease control),Septoria tritici; 100 = 100% disease control,100%
same,Test A rating (% disease control),Botrytis cinerea; 100 = 100% disease control,36%
"Cc1cccc(C)c1Nc1c(-c2ccc(F)cc2Cl)c(C)nn1C [Compound 271, 4-(2-chloro-4-fluorophenyl)-N-(2,6-dimethylphenyl)-1,3-dimethyl-1H-pyrazol-5-amine]",pest or weed control at 40 µg/mL,[1],97%
same,pest or weed control at 40 µg/mL,[2]; [3],98%
same,pest or weed control,Septoria tritici; Zymoseptoria tritici,100%
same,pest or weed control at 40 µg/mL,Botrytis cinerea; [4],99%
Cc1nn(C)c(Nc2ccccc2I)c1-c1ccc(F)cc1F [compound 246],Test H rating (% disease control),[1]; 100 = 100% disease control,98%
same,Test I rating (% disease control),[2]; 100 = 100% disease control,99%
same,Test F rating (% disease control),Septoria tritici; 100 = 100% disease control,100%
same,Test A rating (% disease control),Botrytis cinerea; 100 = 100% disease control,100%
